The values that follow are results of earlier work, collected in patent US20140163109A1, “TASTE-MASKED IBUPROPEN GRANULES” (GLATT AG, priority 2012, published 2014).

On to `CC(C)Cc1ccc(C(C)C(=O)O)cc1` (racemic) [Ibuprofen, (±)-2-(4-isobutylphenyl) propionic acid], for which the solubility in water entry was “poorly soluble in water”.
